From patent EP0033241A2, “Pharmaceutical compositions for rectal administration” (priority 1980, dated 1981)
Where a name gives a salt, the structure may show the parent alone.

Assays:
[1] = in vivo; set-up: species or system SD strain male rats; details: rat
Excerpt: The numeral 25 in the term "POE (25)" designates the average number of added moles of POE.

[2] = in vivo; details: rat, im, 50 mg/kg, AUC^°6
[3] = AUC 0 to 4 hours of cefsulodin (sodium) suppositories with polyoxyethylene cholesterol ethers (Experiment Example 4); assay type: in vivo, rats; details: rat, plasma, 20 mg/kg, rectal suppository 50 mg, 10 % cefsulodin (sodium), Witepsol H-5
Procedure: The anuses were closed with an adhesive agent, and blood samples were taken from the tail veins with time elapsed to determine quantitatively the plasma levels of the compounds having a β-lactam ring by means of the biological assay method.
By incorporating 10 % of cefsulodin (sodium) and 5 % of polyoxyethylene cholesterol ether as shown in Table 5 into Witepsol H-5 used as an excipient, suppositories (50 mg each) were prepared, and administered rectally to rats, in the same manner as in Experiment Example 1, to determine quantitatively the concentration levels of the drug substance in plasma, thereby calculating AUC over the period of 0 to 4 hours. The dosage was 20 mg/Kg.

Row | AUC ([1]; im) [ng·h/mL] | SMILES | other results
1 | 38700 | CN(C)CCn1nnnc1SCC1=C(C(=O)O)N2C(=O)[C@@H](NC(=O)Cc3csc(N)n3)[C@H]2SC1 [Cefotiam, cefotiam] | 
2 | 77800 | CO/N=C(\C(=O)N[C@@H]1C(=O)N2C(C(=O)O)=CCS[C@H]12)c1csc(N)n1 [FK-749, cephthizoxime] | 
3 | 144000 | CO/N=C(\C(=O)N[C@@H]1C(=O)N2C(C(=O)O)=C(COC(C)=O)CS[C@H]12)c1csc(N)n1 [HR-756, cefotaxime] | 
4 | 105000 | CC1(C)S[C@@H]2[C@H](/N=C/N3CCCCCC3)C(=O)N2[C@H]1C(=O)O [Mecillinam, 6a-[(hexahydro-lH-azepin-l-yl)-methyleneamino]penicillanic acid.sodium salt] | 
5 | 192000 | CC1(C)S[C@@H]2[C@H](NC(=O)C(c3ccccc3)S(=O)(=O)O)C(=O)N2[C@H]1C(=O)O (stereo partly shown) [Sulbenicillin, sulbenicillin] | AUC [1]: 92800 ng·h/mL

More lines, now with the values behind:

Row | SMILES | AUC ([1]; im) [ng·h/mL] | other results
6 | CC1(C)S[C@@H]2[C@H](NC(=O)[C@H](N)c3ccccc3)C(=O)N2[C@H]1C(=O)O [Ampicillin, ampicillin] | 14800 | 
7 | Cc1nnc(SCC2=C(C(=O)O)N3C(=O)[C@@H](NC(=O)Cn4cnnn4)[C@H]3SC2)s1 [Cefazolin, cefazolin] | 348000 | 
8 | CO/N=C(\C(=O)N[C@@H]1C(=O)N2C(C(=O)O)=C(CSc3nnnn3C)CS[C@H]12)c1csc(N)n1 [Cefmenoxime (1/2HCl), 7β-[2-(2-aminothiazol-4-yl)-[Z]-2-methoxyimino-acetamide]-3-[(1-methyl-1H-tetrazol-5-yl)thiomethyl]-ceph-3-em-4-carboxylate.l/2hydrochloride] | 190000 | AUC at 6 h [2]: 190000 ng·h/mL
9 | NC(=O)c1cc[n+](CC2=C(C(=O)O)N3C(=O)[C@@H](NC(=O)[C@@H](c4ccccc4)S(=O)(=O)[O-])[C@H]3SC2)cc1 [Cefsulodin sodium, 3-(4-carbamoyl-l-pyridinio-methyl)-7β-(D-α-sulfophenylacetamide)-ceph-3-em-4-carboxylate monosodium salt] | 54000 | AUC(0-t) at 4 h ([3]; 5 % POE (10) cholesterol ether): 30400 ng·h/mL; AUC(0-t) at 4 h ([3]; 5 % POE (20) cholesterol ether): 43000 ng·h/mL; AUC(0-t) at 4 h ([3]; 5 % POE (25) cholesterol ether): 35900 ng·h/mL; AUC(0-t) at 4 h ([3]; 5 % POE (30) cholesterol ether): 37900 ng·h/mL; AUC(0-t) at 4 h ([3]; no polyoxyethylene cholesterol ether (None)): 500 ng·h/mL
